Laboratory results as given in US7811609B2, “Use of metal compounds to treat gastrointestinal infections” (priority 2000, dated 2010).
Where “and” joins values, the source holds several entries; their conditions need not be identical. Equal entries are not always repeated. Where two headings read alike, the source gives them in different places.

How the values were obtained:
Helicobacter pylori [1] = test: MIC against Helicobacter pylori by two fold serial dilution in growth medium; format: cell-based
Method: (§1) Solutions of metal salts were prepared by dilution of the metal salt, optionally together with the ligand, in ultra-high-purity water. The pH values were adjusted to 7 with concentrated sodium hydroxide. The solutions were γ irradiated for 20 to 30 minutes for sterilisation, and then diluted ten fold in the bacterial growth medium to be used.
(§2) A gradient of concentration was obtained by two fold serial dilutions of the medium. The concentrations of metals were analysed by inductively coupled plasma spectrometry. Each dilution was inoculated with the different bacteria to be tested, by multi-point inoculating on the agar media, or suspending in the broth media.
The presence or absence of bacterial growth was reported within the concentration gradient and the minimum concentration of complex in the medium that inhibits totally the bacterial growth (MIC) was determined. The growth on an agar plate was detected by the presence of colonies, and by turbidity in the broth media. The bacteria were identified by the Gram morphology test. Helicobacter pylori growth was also confirmed by biochemical test on the catalase, urease and oxidase activity.

Staphylococcus aureus = test: MIC against Staphylococcus aureus; format: cell-based
[2] = system: Coagulase negative staphylococcus; test: MIC against coagulase negative staphylococcus; format: cell-based; settings: Mueller-Hinton agar with 2% horse serum and isosensitest agar with 5% horse blood; several strains
Enterococcus faecalis = test: MIC against Enterococcus faecalis; format: cell-based
Enterococcus faecium = test: MIC against Enterococcus faecium; format: cell-based; settings: Mueller-Hinton agar with 2% horse serum and isosensitest agar with 5% horse blood; several strains
Pseudomonas aeruginosa [3] = test: MIC against Pseudomonas aeruginosa; format: cell-based
Klebsiella = test: MIC against Klebsiella; format: cell-based
Echerichia coli = test: MIC against Echerichia coli; format: cell-based
other bacteria = test: MIC against other bacteria; format: cell-based; settings: 32 mg/l = estimate limit between active and non-active metals
Helicobacter pylori [4] = test: Inhibition of Helicobacter pylori growth over time in the STH medium (FIG. 1, cfu/ml against time); format: cell-based; settings: cobalt 2.00 ppm
From the text: FIG. 1 is a graph showing the inhibition of H. pylori growth by cobalt (cobaltous chloride) in the STH medium.
I50=inhibition of 50% of the Helicobacter pylori inoculated by cobaltous chloride. Concentration of cobalt in the medium was 2.00 ppm.

[5] = Tolerance study in patients with H. pylori infection; format: in vivo, human; settings: six patients; 20 mg/day cobalt (10 mg b.d) for two weeks; oral capsules or solution
Method: In a tolerance study, six patients with H. pylori infection ingested a low dose of 20 mg/day cobalt, as cobalt chloride (10 mg b.d), for two weeks. […] In one patient the cobalt was taken also with a proton pump inhibitor (Lansoprazole) while the remaining 5 took cobalt alone as capsules (4 patients) or a solution (1 patient). 3 of these patients had gastritis and/or duodenitis with a duodenal ulcer also in one of these three. The other 3 had oesophagitis and/or normal stomach and duodenum.

Helicobacter pylori [6] = system: Helicobacter pylori
Method: as §1, §2
(§3) Media were incubated for Helicobacter pylori in a microaerobic atmosphere (gas jar containing a CampyGen® pack, 5% O2-10% CO2-85% N2 by volume) with constant shaking (orbital shaker, 140 rpm) at 37° C. for five days.
(§4) The presence or absence of bacterial growth was reported within the concentration gradient and the minimum concentration of complex in the medium that inhibits totally the bacterial growth (MIC) was determined. The growth on an agar plate was detected by the presence of colonies, and by turbidity in the broth media. […] Helicobacter pylori growth was also confirmed by biochemical test on the catalase, urease and oxidase activity.

E. coli = settings: extrapolated from survival rates; protein broth then phosphate-buffered saline; Zhao et al 1998; cited from earlier work
Pseudomonas aeruginosa [7] = settings: extrapolated from survival rates; protein broth then phosphate-buffered saline; Zhao et al 1998; cited from earlier work
[8] = system: Staphylococcus (aureus or Oxford Staph); settings: extrapolated from survival rates; protein broth then phosphate-buffered saline; Zhao et al 1998; cited from earlier work
H. pylori = settings: cited from earlier work
Helicobacter pylori [9] = test: microbe, parasite or virus in culture; settings: read-out: MIC of amoxycillin (no cobalt)
Method: as §1, §2, §3, §4

[10] = Mueller-Hinton agar with 2% horse serum and isosensitest agar with 5% horse blood, several strains

[Cl-].[Cl-].[Co+2] [Co chloride, cobalt (II) chloride]
Average Selectivity Ratio (Helicobacter pylori [1]; (Sum of MIC values against all bacteria except H. pylori ÷ No. of MIC values) ÷ MIC value for H. pylori): 434
MIC (Helicobacter pylori [1]; STH broth, NCTC 11637 and seven clinical isolates): 0.03 to 0.6 µg/mL
MIC (mg/l), median (Helicobacter pylori [1]; STH broth, NCTC 11637 and seven clinical isolates, median): 0.06 mg/L
Mean ratio pH 4:pH 7, first value (Helicobacter pylori [1]; Strain 1 (Chloride: against first pH 7 value)): 0.5
MIC, Strain 1 (pH 4) (Helicobacter pylori [1]; Strain 1, pH 4): 0.015
MIC, Strain 1 (pH 7) (Helicobacter pylori [1]; Strain 1, pH 7 (first value where two are given)): 0.03
MIC, Strain 1 (pH 7), second value (Helicobacter pylori [1]; Strain 1, pH 7, second of x/y): 0.125
Mean ratio pH 4:pH 7, second value (Helicobacter pylori [1]; Strain 2 (Chloride: Strain 1 against second pH 7 value)): 0.12
MIC, H. pylori, range in brackets (Helicobacter pylori [1]; Table 4): (<0.03-0.125)
MIC, H. pylori (Helicobacter pylori [1]; Table 4, main value): 0.06 µg/mL
activity against H. pylori at pH 4 relative to pH 7 (Helicobacter pylori [1]; Table 5): about 10 fold
kind of action against H. pylori (Helicobacter pylori [1]; found by measuring the MIC): not only bacteriostatic (i.e. inhibitory of growth), but also bactericidal
minimum inhibitory concentration (MIC) (Helicobacter pylori [1]; in vitro, Co^2+ as cobalt chloride): 0.06 µg/mL
MIC, pH 4-7 (Helicobacter pylori [1]; pH 4-7: pH of the media changes during the experiment from acidic start): 0.03-0.4 mg/l
MIC, pH 7 (Helicobacter pylori [1]; pH 7): 0.06-0.4 mg/l
activity against the H. pylori strain deprived of its urease enzyme (Helicobacter pylori [1]; urease-deprived strain): active
MIC (Staphylococcus aureus; [10]): >32 µg/mL
MIC, Staphylococcus (aureus or Oxford Staph) (Staphylococcus aureus; Table 4): > 32 µg/mL
MIC [2]: >32 µg/mL
MIC (Enterococcus faecalis; [10]): >32 µg/mL
MIC, Ent faecalis (Enterococcus faecalis; Table 4): > 32 µg/mL
MIC (Enterococcus faecium): >32 µg/mL
MIC (Pseudomonas aeruginosa [3]; [10]): >32 µg/mL
MIC, Pseudomonas aeruginosa (Pseudomonas aeruginosa [3]; Table 4): > 32 µg/mL
MIC (Klebsiella; [10]): >32 µg/mL
MIC, Klebsiella (Klebsiella; Table 4): > 32 µg/mL
MIC (Echerichia coli; [10]): >32 µg/mL
MIC, E. coli (Echerichia coli; Table 4): > 32 µg/mL
activity (MIC) against other bacteria (other bacteria): > 32 µg/mL
time to I50 (inhibition of 50% of the Helicobacter pylori inoculated) (Helicobacter pylori [4]): 5 h
time to total inhibition (Helicobacter pylori [4]): 8 h
adverse effects [5]: no reported adverse effects
growth in the medium (Helicobacter pylori [6]; Co 0.0015 mg/l, Ax 0 mg/l): +
growth in the medium (Helicobacter pylori [6]; Co 0.004 mg/l, Ax 0 mg/l): +
growth in the medium (Helicobacter pylori [6]; Co 0.008 mg/l, Ax 0 mg/l): +
growth in the medium (Helicobacter pylori [6]; Co 0.030 mg/l, Ax 0 mg/l): −
growth in the medium (Helicobacter pylori [6]; Co 0.060 mg/l, Ax 0 mg/l): −
growth in the medium (Helicobacter pylori [6]; Co 0.120 mg/l, Ax 0 mg/l): −
MIC of cobalt (no amoxycillin) (Helicobacter pylori [6]; no amoxycillin): MIC of cobalt (no amoxycillin): 0.030 mg/l
MIC, E. coli (footnote a) (E. coli): 22.97^a
MIC, Pseudomonas aeruginosa (footnote a) (Pseudomonas aeruginosa [7]): 2.3^a
MIC, Staphylococcus (aureus or Oxford Staph) (footnote a) [8]: 22.97^a

CC1(C)S[C@@H]2[C@H](NC(=O)[C@H](N)c3ccc(O)cc3)C(=O)N2[C@H]1C(=O)O [amoxycillin, reference compound]
growth in the medium (Helicobacter pylori [6]; Co 0 mg/l, Ax 0.002 mg/l): +
growth in the medium (Helicobacter pylori [6]; Co 0 mg/l, Ax 0.004 mg/l): +
growth in the medium (Helicobacter pylori [6]; Co 0 mg/l, Ax 0.008 mg/l): +
growth in the medium (Helicobacter pylori [6]; Co 0 mg/l, Ax 0.015 mg/l): +
growth in the medium (Helicobacter pylori [6]; Co 0 mg/l, Ax 0.03 mg/l): +
growth in the medium (Helicobacter pylori [6]; Co 0 mg/l, Ax 0.06 mg/l): −
MIC, strains that repeatedly showed higher MIC (H. pylori; H. pylori strains lacking one penicillin-binding protein): 0.25 µg/mL and 0.5 µg/mL
MIC, usual (H. pylori; H. pylori, usual strains): ≤ 0.03 µg/mL
MIC (Helicobacter pylori [9]): 0.06 µg/mL
